Measurements as given in patent US6291470A, “Indole derivatives process for producing the same and medicinal uses of the same” (Toray Industries, Inc., priority 1992, dated 2001).

Columns and labels:
δ-opioid receptor [1] = biological target: T1, δ-opioid receptor (Mus musculus, UniProt P32300); experiment: Change in δ-antagonist activity against DPDPE with time in mouse vas deferens (MVD); conditions: for Ratio of IC50 Values / Kb: 173 and NTI at 20 nM, 174 and 5'-NTII at 100 nM; for Kb: read-out: Ke; for change of antagonist activity with time (in words): 15 min to 1 hour; for activity at 1 hour relative to 5'-NTII: vs 5'-NTII
T1 construct: from tissue; host or cells: vas deferens of male ddy mice
T1 sequence (P32300 whole entry): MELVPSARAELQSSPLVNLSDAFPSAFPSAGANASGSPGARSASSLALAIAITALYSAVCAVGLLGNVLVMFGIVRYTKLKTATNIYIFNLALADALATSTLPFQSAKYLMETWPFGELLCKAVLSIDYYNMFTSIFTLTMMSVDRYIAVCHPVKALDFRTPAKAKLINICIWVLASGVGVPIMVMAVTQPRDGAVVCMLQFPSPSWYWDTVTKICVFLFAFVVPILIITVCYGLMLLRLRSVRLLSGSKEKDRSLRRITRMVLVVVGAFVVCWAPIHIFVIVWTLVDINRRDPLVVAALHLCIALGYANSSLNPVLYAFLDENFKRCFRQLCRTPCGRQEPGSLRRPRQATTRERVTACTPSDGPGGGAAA
Experimental: (§1) In this experiment, ddy male mice were used. In a Magnus' tube which is filled with Krebes-Henseleit solution (NaCl […]; KCl 4.7 mM; CaCl2 2.5 mM; KH2 PO4 1.1 mM; NaHCO3 25 mM; glucose 11 mM) kept at 37° C., and into which an atmosphere consisting of 5% carbon dioxide and 95% oxygen was flown, vas deferens taken from the animals was suspended. Electric stimulation was applied through ring-shaped platinum electrodes mounted on the upper and lower portions of the tube at a frequency of 0.1 Hz and 5.0 mS duration. The contraction of the tissue was recorded on polygraph using isometric transducer.
(§2) Then 100 nM of the test compound was added. Twenty minutes later, DPDPE was begun to be added cumulatively. The ratio of IC50 values in the presence and absence of the test compound, Ke value (the molar concentration of the test compound necessary for translating the dose-effect curve to the curve of twice dose) and pA2 value were determined. The pA2 value was determined by the method of Shild et al (Shild, H. O., Br. J. Pharmac. Chamotehr., 4, 277 (1949)). That is, the logarithm of the test compound (log[test compound]) was plotted along the abscissa and the logarithm of the value obtained by subtracting 1 from the ratio of IC50 values was plotted in the presence and absence of the test compound [log(dose ratio-1)] along the ordinate. The pA2 value was determined from the value on the abscissa when the value on the ordinate of the obtained line is 0.
Using MVD, the antagonist activities of compounds 173 and 174 against DPDPE were determined. The ratio of IC50 values, Ke values and pA2 values at 15 minutes, 30 minutes and 1 hour from the addition of the test compounds were calculated. Since the concentrations of the test compounds are different, the reciprocals of Ke values were plotted in FIGS. 1 and 2.

[2] = system: Cerebral cortex nerve cells; experiment: Brain cell-protecting action, MTT method; format: cell-based, rat; conditions: 10 μM; for brain cell-protecting action (in words): MTT; for Ratio of Absorbances: study group / control group, 570 nm, 3 days culture; for brain cell-protecting activity relative to nor-BNI (in words): vs nor-BNI
Experimental: The brain cell-protecting action was examined by MTT [3-(4,5-dimethylthiazol-2-yl)-2,5-diphenyltetrazolium bromide] method. MTT yields a dark blue formazan compound by mitochondria in living cells. This compound was dissolved in isopropanol and absorbance at 570 nm was measured, thereby measuring the number of living cells.
Cerebral cortex nerve cells of fetal rats of 17 days old were placed in wells of a 96-well plate at a population density of 1×10^5 cells/cm^2. Then 10 μM of a test compound was added and the cells were cultured in 200 μl of mixed medium of D-MEM/F.12 (1:1) for 3 days (37° C., 5%CO2). In a control group, the medium alone was added Then […] of MTT solution in PBS (6mg/ml) was added and the mixture was allowed to react for 3 hours (37° C., 5% CO2). After removing the culture medium, 100 μl of isopropanol was added and the absorbance was measured.
The ratio of the absorbances of the study group and the control group was employed as an index of brain cell-protecting action.

κ-opioid receptor = biological target: T2, κ-opioid receptor (Cavia porcellus, UniProt P41144); experiment: κ-opioid antagonist activity against U-50488H in guinea pig ileum (GPI); conditions: 20 min; for Ratio of IC50 Values: U-50488H IC50 with/without 100 nM test compound; for Kb: against U-50488H, test compound 100 nM, read-out: Ke
T2 construct: from tissue; host or cells: ileum longitudinal muscle of male Hartley guinea pigs
T2 sequence (P41144 whole entry): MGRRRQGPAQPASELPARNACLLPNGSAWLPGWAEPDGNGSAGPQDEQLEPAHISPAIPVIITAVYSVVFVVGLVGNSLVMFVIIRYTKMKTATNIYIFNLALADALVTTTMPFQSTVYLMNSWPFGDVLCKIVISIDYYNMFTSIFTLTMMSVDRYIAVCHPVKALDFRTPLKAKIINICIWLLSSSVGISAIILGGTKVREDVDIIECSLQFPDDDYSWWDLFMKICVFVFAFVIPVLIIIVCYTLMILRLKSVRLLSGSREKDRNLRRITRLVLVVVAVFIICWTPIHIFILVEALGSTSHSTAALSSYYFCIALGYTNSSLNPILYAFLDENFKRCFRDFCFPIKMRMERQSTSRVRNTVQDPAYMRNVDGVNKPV
Experimental: Using guinea pig ileum (GPI), antagonist activities against U-50488H which is a κ-opioid agonist was determined.
Hartley male guinea pigs were used. After killing the guinea pigs by clubbing, ilea were taken. The inside of the ilea was washed with a nutrient liquid and only longitudinal muscles were peeled off. Using the thus obtained longitudinal muscles, the tests were carried out using the same apparatus as used in the experiment employing MVD.
First, U-50488H which is a κ-agonist was cumulatively added and IC50 value was determined. Thereafter, the muscle was well washed with the nutrient liquid. After the contraction reaction became stable, 100 nM of a test compound was added. From 20 minutes after, U-50488H was cumulatively added and the ratio of IC50 values, Ke value and pA2 value were determined in the same manner as in the experiment employing MVD.

δ-opioid receptor [3] = biological target: T1, δ-opioid receptor; experiment: δ-opioid antagonist activity against DPDPE in mouse vas deferens (MVD); conditions: 20 min; for Ratio of IC50 Values: DPDPE IC50 with/without 100 nM test compound; for Kb: against DPDPE, test compound 100 nM, read-out: Ke
Experimental: Using mouse vas deferens (MVD), the antagonist activity against DPDPE which is a δ-opioid agonist was checked.
as §1, §2

[4] = system: delayed type hypersensitivity; experiment: Mouse Delayed Type Hypersensitivity Reaction Suppression Test-2 (donor spleen cells, subcutaneous administration); format: in vivo; conditions: C57BL/6 spleen cells; subcutaneous everyday from day of sensitization, totally 8 days; BALB/c
Excerpt: BALB/c mice (male, 7 weeks old) were used, and each group consisted of 4-5 mice. Spleen cells (1×10^7 ) obtained from a donor mouse (C57BL/6) was subcutaneously administered to sensitize the mice. On Day 7 from the sensitization, the spleen cells (5×10^6) of the donor were subcutaneously administered on the right hing leg and spleen cells (5×10^6) obtained from a mouse of the same line as the recipient mice were subcutaneously administered on the left footpad. Twenty four hours later, the thicknesses of the right and left footpads were measured with a dial thickness gage, and the difference in thicknesses of the right and left footpads before the induction of the reaction and 24 hours after the induction of the reaction was employed as the index of the degree of the reaction.
The test compound was dissolved in 10% DMSO-water and was subcutaneously administered everyday from the day of sensitization to the day of induction of the reaction, totally 8 days. In the control group, 10% DMSO-water alone was administered in the same manner. The volume of administration was 10 ml/kg in both study groups and in the control group. Delayed Type Hypersensitivity Reaction=(thickness of right foodpad after induction-thickness of right footpad before induction)-(thickness of […] before induction) [formula]
wherein C means delayed type hypersensitivity reaction of the group to which the test compound was administered and D means the delayed type hypersensitivity reaction of the group to which vehicle was administered.

Row | SMILES | brain cell-protecting action (in words) [2] | Ratio of Absorbances [2] | Ratio of IC50 Values (κ-opioid receptor) | Kb (κ-opioid receptor) | Ratio of IC50 Values (δ-opioid receptor [3]) | Kb (δ-opioid receptor [3]) | further results
1 | Oc1ccc2c3c1O[C@H]1c4[nH]c5c(N=C=S)cccc5c4C[C@@]4(O)[C@@H](C2)N(CC2CC2)CC[C@]314 [Compound 173, 17-cyclopropylmethyl-6,7-didehydro-4,5α-epoxy-3,14β-dihydroxy-7'-isothiocyanato-6,7-2',3'-indolomorphinan] |  |  |  |  |  |  | Ratio of IC50 Values (δ-opioid receptor [1]; 15 min): 105; Kb (δ-opioid receptor [1]; 15 min): 0.19 nM; change of antagonist activity with time (in words) (δ-opioid receptor [1]): increased with time; Ratio of IC50 Values (δ-opioid receptor [1]; 30 min): 253; Kb (δ-opioid receptor [1]; 30 min): 0.08 nM; Ratio of IC50 Values (δ-opioid receptor [1]; 60 min): 306; Kb (δ-opioid receptor [1]; 60 min): 0.07 nM; activity at 1 hour relative to 5'-NTII (δ-opioid receptor [1]; 1 hour): about 170 times; activity at 1 hour relative to NTI (δ-opioid receptor [1]; 1 hour, vs NTI): about 3.5 times; activity relative to compound 174 (in words) (δ-opioid receptor [1]; vs compound 174): inferior to that of compound 174
2 | CN(C)CCc1ccc2[nH]c3c(c2c1)C[C@@]1(O)[C@H]2Cc4ccc(O)c5c4[C@@]1(CCN2CC1CC1)[C@H]3O5 [Compound 9, 17-cyclopropylmethyl-6,7-didehydro-4,5α-epoxy-3,14-dihydroxy-5'-[2-(N,N-dimethylamino)ethyl]-6,7-2',3'-indolomorphinan] | Clear activities | 8.27 | 99.0 | 4.07 nM | 25.6 | 4.07 nM | brain cell-protecting activity relative to nor-BNI (in words) [2]: higher than that of nor-BNI
3 | O=C(NCC1CC1)c1ccc2[nH]c3c(c2c1)C[C@@]1(O)[C@H]2Cc4ccc(O)c5c4[C@@]1(CCN2CC1CC1)[C@H]3O5 [Compound 7, 17-cyclopropylmethyl-6,7-didehydro-4,5α-epoxy-3,14β-dihydroxy-5'-(N-cyclopropylmethylcarbamoyl)-6,7-2',3'-indolomorphinan] | Clear activities | 5.31 | 22.8 | 4.59 nM | 33.2 | 3.11 nM | 
4 | CN(C)Cc1ccc2[nH]c3c(c2c1)C[C@@]1(O)[C@H]2Cc4ccc(O)c5c4[C@@]1(CCN2CC1CC1)[C@H]3O5 [Compound 10, 17-cyclopropylmethyl-6,7-didehydro-4,5α-epoxy-3,14β-dihydroxy-5'-(N,N-dimethylamino)methyl-6,7-2',3'-indolomorphinan] | Clear activities | 7.58 | 19.4 | 9.67 nM | 11.4 | 9.62 nM | 
5 | O=C(NCC1CC1)c1ccc2c3c([nH]c2c1)[C@@H]1Oc2c(O)ccc4c2[C@@]12CCN(CC1CC1)[C@H](C4)[C@]2(O)C3 [Compound 47, 17-cyclopropylmethyl-6,7-didehydro-4,5α-epoxy-3,14β-dihydroxy-6'-(N-cyclopropylmethylcarbamoyl)-6,7-2',3'-indolomorphinan] |  |  | 3.11 | 47.4 nM | 13.0 | 8.33 nM | 
6 | Oc1ccc2c3c1O[C@H]1c4[nH]c5c(-c6ccccc6)cccc5c4C[C@@]4(O)[C@@H](C2)N(CC2CC2)CC[C@]314 [Compound 120, 17-cyclopropylmethyl-6,7-didehydro-4,5α-epoxy-3,14β-dihydroxy-7'-phenyl-6,7-2',3'-indolomorphinan] |  |  |  |  | 17.0 | 6.25 nM | % Suppression [4]: 46%
7 | O=S(=O)(NCC1CC1)c1ccc2c3c([nH]c2c1)[C@@H]1Oc2c(O)ccc4c2[C@@]12CCN(CC1CC1)[C@H](C4)[C@]2(O)C3 [Compound 45, 17-cyclopropylmethyl-6,7-didehydro-4,5α-epoxy-3,14β-dihydroxy-6'-(N-cyclopropylmethylsulfamoyl)-6,7-2',3'-indolomorphinan] |  |  | 3.22 | 45.1 nM | 7.44 | 15.5 nM | 
8 | C[S+]([O-])c1cccc2c3c([nH]c12)[C@@H]1Oc2c(O)ccc4c2[C@@]12CCN(CC1CC1)[C@H](C4)[C@]2(O)C3 (single isomer, unassigned) [Compound 592, 17-cyclopropylmethyl-6,7-didehydro-4,5α-epoxy-3,14β-dihydroxy-7'-methylsulfinyl-6,7-2',3'-indolomorphinan] |  |  |  |  |  |  | % Suppression [4]: 20%
9 | Oc1ccc2c3c1O[C@H]1c4[nH]c5ccc(CNCC6CC6)cc5c4C[C@@]4(O)[C@@H](C2)N(CC2CC2)CC[C@]314 [Compound 180, 17-cyclopropylmethyl-6,7-didehydro-4,5α-epoxy-3,14β-dihydroxy-5'-(N-cyclopropylmethylamino)methyl-6,7-2',3'-indolomorphinan] | Clear activities | 8.73 |  |  | 15.2 | 7.04 nM | brain cell-protecting activity relative to nor-BNI (in words) [2]: higher than that of nor-BNI
10 | C[S+]([O-])c1cccc2c3c([nH]c12)[C@@H]1Oc2c(O)ccc4c2[C@@]12CCN(CC1CC1)[C@H](C4)[C@]2(O)C3 (single isomer, unassigned) [Compound 591, 17-cyclopropylmethyl-6,7-didehydro-4,5α-epoxy-3,14β-dihydroxy-7'-methylsulfinyl-6,7-2',3'-indolomorphinan] |  |  |  |  |  |  | % Suppression [4]: 16%
11 | Oc1ccc2c3c1O[C@H]1c4[nH]c5cc(N=C=S)ccc5c4C[C@@]4(O)[C@@H](C2)N(CC2CC2)CC[C@]314 [Compound 174, 17-cyclopropylmethyl-6,7-didehydro-4,5α-epoxy-3,14β-dihydroxy-6'-isothiocyanato-6,7-2',3'-indolomorphinan] |  |  |  |  |  |  | Ratio of IC50 Values (δ-opioid receptor [1]; 15 min): 25.7; Kb (δ-opioid receptor [1]; 15 min): 4.05 nM; change of antagonist activity with time (in words) (δ-opioid receptor [1]): increased with time; Ratio of IC50 Values (δ-opioid receptor [1]; 30 min): 47.6; Kb (δ-opioid receptor [1]; 30 min): 2.15 nM; Ratio of IC50 Values (δ-opioid receptor [1]; 60 min): 58.6; Kb (δ-opioid receptor [1]; 60 min): 1.74 nM; activity at 1 hour relative to 5'-NTII (δ-opioid receptor [1]; 1 hour): about 7 times
